From patent publication US20250114326A1, “POLAR MARINE-DERIVED MACROCYCLIC LACTAM COMPOUND, AND PREPARATION METHOD THEREFOR AND USE THEREOF” (RENJI HOSPITAL, SCHOOL OF MEDICINE, SHANGHAI JIAO TONG …, priority 2021, published 2025)
Where two headings read alike, the source gives them in different places.

Test system: inflammatory cytokine IL-6
Test: Inhibition of cytokine IL-6 in PMA-differentiated, LPS-treated THP-1 cells (Cytometric Bead Array, flow cytometry)
Type: cell-based, human
Settings: PMA 160 nM 36 h, compound 2 h then LPS 24 h, IL-6 in culture solution by CBA, read-out: Half maximal inhibitory concentration (IC50) value on inflammatory cytokine IL-6
Experimental: Culture of THP-1 cells and treatment of THP-1 cells with test compounds in combination with LPS
THP-1 cells (from the Cell Bank of the Chinese Academy of Sciences) were cultured in RPMI-1640 medium containing 10% FBS in a 5% CO2 incubator at 37° C. 100 μL of a cell suspension in a complete culture medium containing antibiotics (100 μg/mL streptomycin and 100 U/mL penicillin) and PMA (final concentration: 160 nM) was added to each well in a 96-well plate (about 5×10^4 cells/well). After 36 h of treatment, the cells achieved adherent growth.
The PMA-containing medium was discarded and then the cells were washed with 1×PBS solution. Serum-free RPMI-1640 (2 mL) was added and the cells were treated for 12 h. The active compounds to be tested were diluted into five concentration gradients and added to each well for a 2-hour treatment. The culture solutions containing the compounds were retained and the cells were treated with a serum-free medium ([…]) containing LPS (1 mg/mL) for 24 h.
The content assay for cytokine IL-6 in the culture solution was performed according to the Human Inflammation Cytometric Bead Array (CBA) method in the manufacturer's instructions. After the above-mentioned cytokine levels were determined on the FACSCalibur flow cytometer, the FCAP Array software was used to analyze the results.

Row | Compound | IC50 (Homo sapiens) [µM] | IC50 (listed as control drug) [µM] | IC50 [µM]
1 | CC[C@H](C)C[C@]1(O)C(=O)C[C@@H](O)[C@@]2(C)C=C(C)[C@H](O2)/C(C)=C/C(C)=C/C[C@@H](CO)OC(=O)[C@H](OC)[C@@H](O)CNC1=O [Compound 1, Somalactam A] | 10.54 ± 0.06 |  | 
2 | CC[C@H](C)C[C@@]1(O)C(=O)NC[C@H](O)[C@@H](OC)C(=O)OC[C@@H](O)C/C=C(\C)[C@H]2C(C)=C[C@]3(C)O[C@@H]4C[C@@]1(O)O[C@]4(C)[C@H]23 [Compound 2, Somalactam B] | 11.1 ± 0.13 |  | 
3 | CC[C@H](C)C[C@@]1(O)C(=O)NC[C@H](O)[C@@H](OC)C(=O)O[C@H](CO)C/C=C(\C)[C@@H]2C(C)=C[C@@]3(C)O[C@@H]4C[C@@]1(O)O[C@]4(C)[C@@H]23 [Compound 3, Somalactam C] | 5.76 ± 1.18 |  | 
4 | CC[C@H](C)C[C@@]1(O)C(=O)NC[C@H](O)[C@@H](OC)C(=O)O[C@@H]2CO[C@]3(C)C=C(C)[C@@H](/C(C)=C/[C@@]4(C)O[C@]1(O)C[C@H]4O)[C@@H]3C2 [Compound 4, Somalactam D] | 9.12 ± 0.15 |  | 
5 | Tocilizumab [reference compound] |  | 6.02 ± 0.12 | 9.22 ± 0.12
